Here are results for 18 compounds from patent US20210323977A1, “PYRROLIDINYL AMIDE COMPOUNDS FOR THE TREATMENT OF AUTOIMMUNE DISEASE” (Hoffmann-La Roche Inc., priority 2018, published 2021).

pIC50: −log10 of the molar value.

The assay concerns the target T1, human TLR9 (Homo sapiens, UniProt Q9NR96).
T1 sequence (Q9NR96 26-1032): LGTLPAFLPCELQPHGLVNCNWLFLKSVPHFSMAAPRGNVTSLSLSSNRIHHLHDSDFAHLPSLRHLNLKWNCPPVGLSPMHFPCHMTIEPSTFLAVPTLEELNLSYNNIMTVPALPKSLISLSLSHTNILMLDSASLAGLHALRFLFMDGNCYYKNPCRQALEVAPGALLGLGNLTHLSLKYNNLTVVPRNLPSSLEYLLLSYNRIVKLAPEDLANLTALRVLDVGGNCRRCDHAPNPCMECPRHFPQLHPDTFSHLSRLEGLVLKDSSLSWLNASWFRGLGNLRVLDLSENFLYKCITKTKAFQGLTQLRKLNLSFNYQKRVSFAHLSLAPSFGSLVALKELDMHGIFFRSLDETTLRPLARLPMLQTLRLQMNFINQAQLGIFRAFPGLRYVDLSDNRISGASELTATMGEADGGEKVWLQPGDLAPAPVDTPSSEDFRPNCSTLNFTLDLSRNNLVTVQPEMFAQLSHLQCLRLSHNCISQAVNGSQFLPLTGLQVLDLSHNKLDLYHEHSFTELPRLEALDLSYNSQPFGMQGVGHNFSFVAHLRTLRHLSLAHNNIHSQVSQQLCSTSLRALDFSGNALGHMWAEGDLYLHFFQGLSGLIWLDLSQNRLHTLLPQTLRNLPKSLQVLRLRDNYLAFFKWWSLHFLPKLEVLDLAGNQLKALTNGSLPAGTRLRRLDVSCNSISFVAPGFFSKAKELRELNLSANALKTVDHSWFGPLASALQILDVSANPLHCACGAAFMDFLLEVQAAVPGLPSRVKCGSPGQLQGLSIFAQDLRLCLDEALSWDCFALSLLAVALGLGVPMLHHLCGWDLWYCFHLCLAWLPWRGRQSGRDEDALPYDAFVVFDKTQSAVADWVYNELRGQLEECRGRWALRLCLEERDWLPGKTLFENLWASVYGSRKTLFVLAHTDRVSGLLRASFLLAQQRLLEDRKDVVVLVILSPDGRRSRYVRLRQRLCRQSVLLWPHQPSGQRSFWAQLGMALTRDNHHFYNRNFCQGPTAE
As to the kind of experiment: HEK293-Blue-hTLR-9 cells assay. It counts as cell-based. Conditions: HEK293-Blue-hTLR9 cells, SEAP reporter, ODN2006 stimulation, 20 hrs. The source says: HEK293-Blue-hTLR-9 Cells Assay:
A stable HEK293-Blue-hTLR-9 cell line was purchased from InvivoGen (Cat. #: hkb-htlh9, San Diego, Calif., USA). These cells were originally designed for studying the stimulation of human TLR9 by monitoring the activation of NF-κB. A SEAP (secreted embryonic alkaline phosphatase) reporter gene was placed under the control of the IFN-β minimal promoter fused to five NF-κB and AP-1-binding sites. The SEAP was induced by activating NF-κB and AP-1 via stimulating HEK-Blue hTLR9 cells with TLR9 ligands. Therefore the reporter expression was declined by TLR9 antagonist under the stimulation of a ligand, such as ODN2006 (Cat. #: tlrl-2006-1, Invivogen, San Diego, Calif., USA), for incubation of 20 hrs. The cell culture supernatant SEAP reporter activity was determined using QUANTI-Blue™ kit (Cat. #: rep-qb1, Invivogen, San Diego, Calif., USA) at a wavelength of 640 nm, a detection medium that turns purple or blue in the presence of alkaline phosphatase.
HEK293-Blue-hTLR9 cells were incubated at a density of 250,000-450,000 cells/mL in a volume of 170 μL in a 96-well plate in Dulbecco's Modified Eagle's medium (DMEM) containing 4.5 g/L glucose, 50 U/mL penicillin, […], […], 2 mM L-glutamine, 10% (v/v) heat-inactivated fetal bovine serum with addition of 20 sL test compound in a serial dilution in the presence of final DMSO at 1% and 10 sL of 20 uM ODN2006 in above DMEM, perform incubation under 37° C. in a CO2 incubator for 20 hrs. Then 20 sL of the supernatant from each well was incubated with 180 μL Quanti-blue substrate solution at 37° C. for 2 hrs and the absorbance was read at 620-655 nm using a spectrophotometer. The signalling pathway that TLR9 activation leads to downstream NF-x3B activation has been widely accepted, and therefore similar reporter assay was modified for evaluating TLR9 antagonist.

Take `C[C@@H]1CN(c2ccc(C#N)c3ncccc23)C[C@H]1C(=O)N[C@H]1CNC[C@H]1F` [Example 56, Trans-1-(8-cyano-5-quinolyl)-N-[(3S,4R)-4-fluoropyrrolidin-3-yl]-4-methyl-pyrrolidine-3-carboxamide]: the pIC50 (as a rule, −log10 of the IC50, conventionally taken in molar units) was 4.73.

For `CN1CCC(NC(=O)[C@@H]2CN(c3ccc(C#N)c4ncccc34)C[C@H]2C2CC2)CC1` (relative stereo) [Example 14, Trans-1-(8-cyano-5-quinolyl)-4-cyclopropyl-N-(1-methyl-4-piperidyl)pyrrolidine-3-carboxamide], the pIC50 is 5.35. This pIC50 is 0.62 log units higher than that of the compound before. In the case of `NC1CC(NC(=O)C2CN(c3ccc(C(F)(F)F)c4nccnc34)CC23CC3)C1` (stereo not drawn) [Example 38, N-(3-Aminocyclobutyl)-5-[8-(trifluoromethyl)quinoxalin-5-yl]-5-azaspiro[2.4]heptane-7-carboxamide] it was 4.91.

The compound `C[C@H]1CN(c2ccc(Cl)c3ncccc23)C[C@@H]1C(=O)NC1CCN(C)CC1` [Example 50, (3R,4R)-1-(8-chloro-5-quinolyl)-4-methyl-N-(1-methyl-4-piperidyl)pyrrolidine-3-carboxamide] showed a pIC50 of 5.47.

Turning to `N#Cc1ccc(N2CC(C(=O)NC[C@@H]3CNCCO3)C3(CC3)C2)c2nccnc12` (single isomer, unassigned) [Example 71B], the negative-log IC50 (pIC50) was 5.72.

Regarding `C[C@H]1CN(c2ccc(C(F)(F)F)c3nccnc23)C[C@@H]1C(=O)NC1CCN(C)CC1` [Example 5, (3R,4R)-4-methyl-N-(1-methyl-4-piperidyl)-1-[8-(trifluoromethyl)quinoxalin-5-yl]pyrrolidine-3-carboxamide], the pIC50 was 4.98. This pIC50 lies 0.74 log units lower than the previous one. In the case of `CN(C)CC1CC(NC(=O)C2CN(c3ccc(C(F)(F)F)c4nccnc34)CC23CC3)C1` (stereo not drawn) [Example 26, N-[3-[(dimethylamino)methyl]cyclobutyl]-5-[8-(trifluoromethyl)quinoxalin-5-yl]-5-azaspiro[2.4]heptane-7-carboxamide] it was 4.94; in that of `N#Cc1ccc(N2CC(C(=O)NC3CCCNCC3)C(C(F)(F)F)C2)c2cccnc12` (single isomer, unassigned) [Example 30B, N-(azepan-4-yl)-1-(8-cyano-5-quinolyl)-4-(trifluoromethyl)pyrrolidine-3-carboxamide], 4.79. In turn, `C[C@@H]1CN(c2ccc(C(F)(F)F)c3nccnc23)C[C@H]1C(=O)NC1CCN(C)CC1` [Example 25, (3S,4S)-4-Methyl-N-(1-methyl-4-piperidyl)-1-[8-(trifluoromethyl)quinoxalin-5-yl]pyrrolidine-3-carboxamide] gave a pIC50 of 4.86. In the case of `NC1CC2(C1)CC(NC(=O)C1CN(c3ccc(C(F)(F)F)c4nccnc34)CC13CC3)C2` (stereo not drawn) [Example 22, N-(6-aminospiro[3.3]heptan-2-yl)-5-[8-(trifluoromethyl)quinoxalin-5-yl]-5-azaspiro[2.4]heptane-7-carboxamide] it was 5.09; in that of `CN1CCC(NC(=O)[C@@H]2CN(c3ccc(Cl)c4ncccc34)C[C@H]2C(F)(F)F)CC1` (relative stereo) [Example 46, Trans-1-(8-chloro-5-quinolyl)-N-(1-methyl-4-piperidyl)-4-(trifluoromethyl)pyrrolidine-3-carboxamide], 4.81. The same measure for `O=C(NC1CC2CCC(C1)N2)C1CN(c2ccc(C(F)(F)F)c3nccnc23)CC12CC2` (stereo not drawn) [Example 23, N-(8-azabicyclo[3.2.1]octan-3-yl)-5-[8-(trifluoromethyl)quinoxalin-5-yl]-5-azaspiro[2.4]heptane-7-carboxamide]: 4.98; for `N[C@@H]1C[C@H](NC(=O)C2CN(c3ccc(C(F)(F)F)c4nccnc34)CC23CC3)[C@@H]2C[C@@H]21` (stereo partly drawn) [Example 36, N-[(1R,2S,4R,5S)-4-amino-2-bicyclo[3.1.0]hexanyl]-5-[8-(trifluoromethyl)quinoxalin-5-yl]-5-azaspiro[2.4]heptane-7-carboxamide]: 4.66. In the case of `C[C@@H]1CN(c2ccc(C#N)c3ncccc23)C[C@H]1C(=O)NC1CCCNCC1` (single isomer, unassigned) [Example 52A, Trans-N-(azepan-4-yl)-1-(8-cyano-5-quinolyl)-4-methyl-pyrrolidine-3-carboxamide] it was 4.91; in that of `O=C(NC1CC2(CCNCC2)C1)C1CN(c2ccc(C(F)(F)F)c3nccnc23)CC12CC2` (stereo not drawn) [Example 34, N-(7-azaspiro[3.5]nonan-2-yl)-5-[8-(trifluoromethyl)quinoxalin-5-yl]-5-azaspiro[2.4]heptane-7-carboxamide], 4.78; in that of `CC(C)[C@@H]1CN(c2ccc(C#N)c3ncccc23)C[C@H]1C(=O)NC1CCN(C)CC1` (relative stereo) [Example 37, Trans-1-(8-cyano-5-quinolyl)-4-isopropyl-N-(1-methyl-4-piperidyl)pyrrolidine-3-carboxamide], 5.28. For the compound `N#Cc1ccc(N2CC(C(=O)NC[C@H]3CNCCO3)C3(CC3)C2)c2nccnc12` (single isomer, unassigned) [Example 70B], the pIC50 was 5.55. In the case of `N#Cc1ccc(N2CC(C(=O)NC[C@H]3CNCCO3)C3(CC3)C2)c2nccnc12` (single isomer, unassigned) [Example 70A] it was 5.16.
